In test [1] the target is T1, recombinant full-length human GSK3β (Homo sapiens, UniProt P49841).
T1 construct: recombinant full-length human GSK3β (Upstate); purchased Upstate
Description: Luciferase-coupled cell-free GSK3β kinase assay. Format: biochemical. The procedure:
For compounds in Tables 1 and 2, IC50 (μM) for GSK3β enzyme in cell free assay is provided as follows:
Luciferase-Coupled Protein Kinase Assays
All coupled-luciferase assays are performed by using a brief incubation with firefly luciferase (Promega) after completion of the kinase assay. KinaseGlo Plus is used for reading kinase reactions with ATP>10 μM, KinaseGlo for ATP <10 μM. The assay volume in a 384-well plate for the kinase reaction is 30 microliters.
10-25 ng of recombinant full-length human GSK3β (Upstate) is incubated in the presence or absence of compound at varying concentrations for 1 hour at 30 degrees Celsius in 20 mM MOPS, pH 7.0, 10 mM magnesium acetate, 0.2 mM EDTA, 2 mM EGTA, 30 mM magnesium chloride, 62.5 μM phospho-glycogen synthase peptide-2, 5 μM ATP, 10 mM β-glycerol phosphate, 1 mM sodium orthovanadate and 1 mM dithiothreitol. Proceed to KinaseGlo luciferase reaction (see below).
Following the completion of the kinase reaction an equal volume of KinaseGlo or KinaseGlo Plus luciferase reagent (Promega) is added and the luminescence read using a luminescence plate reader within 5-10 minutes. Compound activity is expressed as % inhibition relative to maximal inhibition observed at the maximal dose and IC50 values then calculated using curve fitting software (GraphPad Prizm).

Another test relates to E. coli, ATCC8739. Nature of the test: Antibacterial activity (MIC), E. coli. Format: cell-based. Conditions: Escherichia coli. An excerpt:
(§1) As used herein, a minimum inhibitory concentration (MIC) for bacterial growth assay is the lowest level of a compound needed to cause an inhibition to bacterial growth in culture medium. In certain embodiments, the antibacterial activity of compounds herein, measured as MIC.
(§2) In certain embodiments, GSK3 inhibitors provided herein are substantially free of antibacterial activity or having very low antibacterial activity. The antibacterial activity can be measured by methods known in the art by estimating a minimum inhibitory concentration (MIC) for test compounds. A MIC is the lowest level of a compound needed to cause an inhibition to bacterial growth in a culture medium. […] (Clinical and Laboratory Standards Institute. Methods for Dilution Antimicrobial Susceptibility Tests for Bacteria That Grow Aerobically; Approved Standard-Sixth Edition: CLSI document […]. CLSI, Wayne, Pa. (2003))
(§3) Antibacterial activity for E. coli, ATCC8739 andS. aureus Smith expressed as MIC (μM) is provided as follows: […]

The test system of the next test is S. aureus Smith. Description: Antibacterial activity (MIC), S. aureus. Format: cell-based. The conditions noted are these: Staphylococcus aureus.
Description: as §1, §2, §3

The mark [2] stands for this setting: ATCC8739, Table 2, E. coli ATCC8739, read-out: Antimicrobial MIC [μM] E. Coli.
[3] abbreviates: Table 2, S. aureus Smith, read-out: Antimicrobial MIC [μM] S. aureus.
Setting [4] is: ATCC8739, Table 1, E. coli ATCC8739, read-out: Antibacterial MIC (μM) E.Coli.
The mark [5] stands for this setting: Table 1, read-out: Antibacterial MIC (μM) S. aureus Smith.
[6] abbreviates: ATCC8739, read-out: Antibacterial MIC (μM) E.Coli.
The mark [7] stands for this setting: read-out: Antibacterial MIC (μM) S. aureus Smith.

Each structure is given as a SMILES string. pIC50: −log10 of the molar value. In brackets after ≈: the same amount, converted by molar mass. Where two headings read alike, the source gives them in different places. A value given as a limit tells only on which side of the number the result lay.

Broadly, the pIC50 is −log10 of the IC50, conventionally taken in molar units. What is called MIC is the smallest concentration in the dilution series that meets the test's criterion for growth inhibition.

T1 sequence (P49841 whole entry): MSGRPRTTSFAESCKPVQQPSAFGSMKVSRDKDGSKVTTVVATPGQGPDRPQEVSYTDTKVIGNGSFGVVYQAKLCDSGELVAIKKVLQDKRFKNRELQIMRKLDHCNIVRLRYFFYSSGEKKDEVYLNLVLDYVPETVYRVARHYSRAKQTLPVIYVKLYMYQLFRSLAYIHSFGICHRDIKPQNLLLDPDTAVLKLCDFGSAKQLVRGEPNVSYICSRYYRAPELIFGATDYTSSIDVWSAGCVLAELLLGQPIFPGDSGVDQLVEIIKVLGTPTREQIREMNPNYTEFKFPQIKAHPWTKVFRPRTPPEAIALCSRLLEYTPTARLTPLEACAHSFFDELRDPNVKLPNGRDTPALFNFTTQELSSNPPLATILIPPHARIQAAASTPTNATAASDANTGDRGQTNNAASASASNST

With `CC1COc2c(NCCCn3cnc4ccccc43)c(F)c(N)c3c(=O)c(C(=O)O)cn1c23` (stereo not drawn) [compound 6], the pIC50 in test [1] (Table 2) is more than 7.00. Also, the MIC is 10 to 50 µM (≈ 4.51 to 22.6 µg/mL) in the test on E. coli, ATCC8739 (setting [2]) and 0.5 to 10 µM (≈ 0.226 to 4.51 µg/mL) in the test with S. aureus Smith (setting [3]).

Consider `Nc1c(F)c(NCCCc2ccccc2)c(F)c2c1c(=O)c(C(=O)O)cn2C1CC1` [compound 6], for which the pIC50 in test [1] (Table 1) was more than 7.00. In addition, the MIC in the test on E. coli, ATCC8739 (setting [4]) fell in the range of 10 to 50 µM (≈ 4.13 to 20.7 µg/mL); with S. aureus Smith (setting [5]) it was 0.5 to 10 µM (≈ 0.207 to 4.13 µg/mL).

`Nc1c(F)c(NCCNc2ccccn2)c(F)c2c1c(=O)c(C(=O)O)cn2C1CC1` [compound 7]: the pIC50 in test [1] (Table 1) is 6.30 to 7.00. The MIC in the test on E. coli, ATCC8739 (setting [4]) fell in the range of 0.5 to 10 µM (≈ 0.208 to 4.15 µg/mL); with S. aureus Smith (setting [5]), 0.5 to 10 µM (≈ 0.208 to 4.15 µg/mL).

As to `Nc1c(F)c(NCCCc2ccccc2)c2c3c1c(=O)c(C(=O)O)cn3CCO2` [compound 8], the negative-log IC50 (pIC50) in test [1] (Table 2) was less than 6.00. Further, the minimum inhibitory concentration (MIC) was 10 to 50 µM (≈ 3.97 to 19.9 µg/mL) in the test on E. coli, ATCC8739 (setting [2]) and 10 to 50 µM (≈ 3.97 to 19.9 µg/mL) in the test with S. aureus Smith (setting [3]).

As to `Nc1c(F)c(NCCCn2ccnc2)c2c3c1c(=O)c(C(=O)O)cn3CCO2` [compound 9], the pIC50 in test [1] (Table 2) was 6.00 to 6.30. In addition, the MIC was 10 to 50 µM (≈ 3.87 to 19.4 µg/mL) in the test with E. coli, ATCC8739 (setting [2]) and more than 50 µM in the test with S. aureus Smith (setting [3]).

With `Nc1c(F)c(NCCc2ccc(F)cc2)c(F)c2c1c(=O)ccn2C1CC1` [compound 10], the pIC50 in test [1] (Table 1) is 6.00 to 6.30. The MIC was 10 to 50 µM (≈ 3.73 to 18.7 µg/mL) in the test on E. coli, ATCC8739 (setting [6]) and 10 to 50 µM (≈ 3.73 to 18.7 µg/mL) with S. aureus Smith (setting [7]).

With `Nc1c(F)c(NCCc2ccncc2)c(F)c2c1c(=O)ccn2C1CC1` [compound 11], the pIC50 in test [1] (Table 1) was 6.30 to 7.00. In addition, the MIC was more than 50 µM with E. coli, ATCC8739 (setting [4]) and more than 50 µM with S. aureus Smith (setting [5]).

With `CC1COc2c(NCCNc3cccc(C(F)(F)F)n3)c(F)c(N)c3c(=O)c(C(=O)O)cn1c23` (stereo not drawn) [compound 12], in test [1] (Table 2), the pIC50 is more than 7.00. Also, the MIC lay in the range of 10 to 50 µM (≈ 4.81 to 24.1 µg/mL) in the test on E. coli, ATCC8739 (setting [2]) and 0.5 to 10 µM (≈ 0.241 to 4.81 µg/mL) with S. aureus Smith (setting [3]).

For the molecule `Nc1ccc(CCNc2c(F)c(N)c3c(=O)ccn(C4CC4)c3c2F)cc1` [compound 12], the pIC50 in test [1] (Table 1) is 6.00 to 6.30. For the same molecule, the MIC with E. coli, ATCC8739 (setting [4]) is more than 50 µM; with S. aureus Smith (setting [5]), 10 to 50 µM (≈ 3.7 to 18.5 µg/mL).

On to `CC1COc2c(NCCNc3nc(F)c(F)cc3F)c(F)c(N)c3c(=O)c(C(=O)O)cn1c23` (stereo not drawn) [compound 13], for which the pIC50 in test [1] (Table 2) is more than 7.00. Further, the MIC fell in the range of 10 to 50 µM (≈ 4.67 to 23.4 µg/mL) in the test with E. coli, ATCC8739 (setting [2]) and 0.5 to 10 µM (≈ 0.234 to 4.67 µg/mL) in the test on S. aureus Smith (setting [3]).

In the case of `Nc1c(F)c(NCCCc2ccccc2)c(F)c2c1c(=O)ccn2C1CC1` [compound 13], in test [1] (Table 1), the pIC50 was 6.30 to 7.00. The MIC lay in the range of 10 to 50 µM (≈ 3.69 to 18.5 µg/mL) in the test on E. coli, ATCC8739 (setting [4]) and 10 to 50 µM (≈ 3.69 to 18.5 µg/mL) in the test on S. aureus Smith (setting [5]).

Regarding `CC1COc2c(NCCNc3cccc(F)n3)c(F)c(N)c3c(=O)c(C(=O)O)cn1c23` (stereo not drawn) [compound 14], the pIC50 in test [1] (Table 2) was more than 7.00. Also, the MIC lay within 10 to 50 µM (≈ 4.31 to 21.6 µg/mL) with E. coli, ATCC8739 (setting [2]) and 0.5 to 10 µM (≈ 0.216 to 4.31 µg/mL) with S. aureus Smith (setting [3]).

On to `CC1COc2c(NCCNc3cc(F)cc(F)n3)c(F)c(N)c3c(=O)c(C(=O)O)cn1c23` (stereo not drawn) [compound 15], for which the pIC50 in test [1] (Table 2) is more than 7.00. Also, the minimum inhibitory concentration (MIC) lay in the range of 0.5 to 10 µM (≈ 0.225 to 4.49 µg/mL) in the test on E. coli, ATCC8739 (setting [2]) and 0.5 to 10 µM (≈ 0.225 to 4.49 µg/mL) with S. aureus Smith (setting [3]).

With `Nc1c(F)c(NCCNc2ccccn2)c(F)c2c1c(=O)ccn2C1CC1` [compound 15], in test [1] (Table 1), the pIC50 was 6.30 to 7.00. The MIC is more than 50 µM in the test on E. coli, ATCC8739 (setting [4]) and more than 50 µM with S. aureus Smith (setting [5]).

On to `CC1(C)COc2c(NCCNc3ccccn3)c(F)c(N)c3c(=O)c(C(=O)O)cn1c23` [compound 16], for which, in test [1] (Table 2), the pIC50 is more than 7.00. Further, the MIC in the test with E. coli, ATCC8739 (setting [2]) is more than 50 µM; in the test with S. aureus Smith (setting [3]), more than 50 µM.

In the case of `Nc1c(F)c(NCCc2ccc(O)cc2)c(F)c2c1c(=O)c(C(=O)O)cn2C1CC1` [compound 16], the pIC50 in test [1] (Table 1) is 6.00 to 6.30. In addition, the minimal inhibitory concentration (MIC) with E. coli, ATCC8739 (setting [4]) was 0.5 to 10 µM (≈ 0.208 to 4.15 µg/mL); with S. aureus Smith (setting [5]), less than 0.5 µM.

For `CC(C)OCCCNc1c(F)c(N)c2c(=O)c(C(=O)O)cn(C3CC3)c2c1F` [compound 17], in test [1] (Table 1), the negative logarithm of the IC50 (pIC50) is 6.30 to 7.00. The MIC with E. coli, ATCC8739 (setting [6]) lay within 0.5 to 10 µM (≈ 0.198 to 3.95 µg/mL); in the test on S. aureus Smith (setting [7]), 0.5 to 10 µM (≈ 0.198 to 3.95 µg/mL).

Regarding `C[C@H]1COc2c(NCCCn3cnc4ccccc43)c(F)c(N)c3c(=O)c(C(=O)O)cn1c23` [compound 19], the pIC50 in test [1] (Table 2) was more than 7.00. Also, the minimal inhibitory concentration (MIC) with E. coli, ATCC8739 (setting [2]) fell in the range of 10 to 50 µM (≈ 4.51 to 22.6 µg/mL); in the test with S. aureus Smith (setting [3]) it was 0.5 to 10 µM (≈ 0.226 to 4.51 µg/mL).

With `Nc1c(F)c(NCCc2ccc(F)cc2F)c(F)c2c1c(=O)c(C(=O)O)cn2C1CC1` [compound 19], the pIC50 in test [1] (Table 1) was 6.30 to 7.00. In addition, the MIC in the test with E. coli, ATCC8739 (setting [4]) was in the range of 0.5 to 10 µM (≈ 0.218 to 4.35 µg/mL); with S. aureus Smith (setting [5]), 0.5 to 10 µM (≈ 0.218 to 4.35 µg/mL).

Values taken from patent publication US8063221B2, “Aminoquinolones as GSK-3 inhibitors” (Kyorin Pharmaceutical Co., Ltd., priority 2006, dated 2011).
